The record followed here is US20080318938A1, “METHODS FOR TREATING ABERRANT CELL PROLIFERATION DISORDERS” (priority 2007, published 2008).

A word on the EC50: it is the concentration at which the effect is half-maximal. Read a low EC50 as higher potency in that assay. The term inhibition denotes the change of the read-out against control, counted positive when it falls. Low values mean a weak effect, high ones a strong effect.

Data set [1] relates to J45-01. The data set can be described thus: Inhibition of cell proliferation (MTT). It is filed as cell-based. To be noted: Homo sapiens; J45-01, Leukemia; 48 hours. The gist of the method:
(§1)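 Cells plated, then dosed with compound (final 0.1–10 μM), PBS vehicle, or a Velcade/etoposide/Taxol cocktail. After 48 h culture at 37 °C under 5% CO2, medium is removed and MTT at 0.863 mg/ml added; EC50 reflects half-maximal inhibition of growth.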

Data set [2] concerns NC37. Briefly: Inhibition of cell proliferation (MTT). It is filed as cell-based. To be noted: Homo sapiens, NC-37; NC37, Lymphoma; 48 hours. Put shortly: as §1
In data set [3] the test system is OVCAR-3. The data set can be described thus: Inhibition of cell proliferation (MTT). It is filed as cell-based. The note with it: Homo sapiens; OVCAR-3, Ovarian; 48 hours. The gist of the method: as §1
Data set [4] concerns P116. Briefly: Inhibition of cell proliferation (MTT). To be noted: Homo sapiens; P116, Leukemia; 48 hours. It is filed as cell-based. The gist of the method:
as §1

Data set [5] addresses M2 Muscarinic receptor (Homo sapiens, UniProt P08172). The data set can be described thus: Receptor binding.
Data set [6] deals with BZD (peripheral) peripheral Benzodiazepine receptor. Briefly: Receptor binding.
Data set [7] concerns sst (non-selective) Somatostatin receptor. The data set can be described thus: Receptor binding.
Data set [8] has as its system bone marrow cells (BMCs). Briefly: RNA synthesis and cell viability of bone marrow cells from treated rats. It is filed as in vivo. The note with it: 10 mg/kg daily for 5 days, BMCs isolated 24 hours after last dose. The protocol:
Rats were treated with 10 milligrams per kilogram of Compound TA1-1B daily for five (5) days. Twenty-four (24) hours after the last dose the bone marrow was isolated, and bone marrow cells (BMCs) were tested for RNA synthesis activity and cell viability
The following process was utilized to measure total RNA synthesis. For animals treated with compound TA1-1B, BMCs were isolated and plated overnight at 100,000 cells per mL. Next day cells were incubated for one hour with 5 μCi of [^3H]-uridine. To measure total RNA synthesis, total RNA from treated cells was isolated with a RNease kit (QIAGEN), levels of total RNA were assessed with Ribogreen reagent (Invitrogen) and the newly synthesized tritiated RNA was measured in a scintillation Counter (Perkin Elmer) in a tritium channel.
The following process was utilized to measure cell viability, which involves the use of an Alamar Blue dye. Cells are counted using a hemocytometer, and 4,000-5,000 cells (per well) in 100 microliter of medium are seeded into wells 96-well plate. […] Fluorescence is recorded at an excitation wavelength of 544 nm and emission wavelength of 590 nm using a microplate reader. Fluorescence of […] dye is detected and effects of drug treatment on BMC viablity is determined.

Chain of M2 Muscarinic receptor (P08172 whole entry): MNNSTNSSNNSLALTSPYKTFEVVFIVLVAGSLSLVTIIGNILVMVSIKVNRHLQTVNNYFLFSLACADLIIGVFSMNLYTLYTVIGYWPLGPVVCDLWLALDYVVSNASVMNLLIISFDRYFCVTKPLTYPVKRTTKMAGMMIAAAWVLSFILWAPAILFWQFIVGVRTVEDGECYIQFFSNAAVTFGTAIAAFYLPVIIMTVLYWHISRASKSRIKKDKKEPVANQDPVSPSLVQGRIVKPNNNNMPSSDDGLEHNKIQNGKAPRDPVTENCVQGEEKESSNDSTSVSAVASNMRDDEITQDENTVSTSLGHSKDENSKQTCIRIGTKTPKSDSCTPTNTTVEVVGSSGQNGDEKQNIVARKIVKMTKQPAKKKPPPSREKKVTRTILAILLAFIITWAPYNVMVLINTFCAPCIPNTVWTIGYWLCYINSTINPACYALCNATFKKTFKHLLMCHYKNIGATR

For the compound `CN1CCC[C@H]1CCNC(=O)c1cn2c3c(c(N4CCC(c5cnccn5)C4)c(F)cc3c1=O)Oc1cc3ccccc3cc1-2` (some centres unmarked) [TA1-1B], the EC50 in data set [1] turned out to be 1.89 µM; in data set [2] it was 1.26 µM; in data set [3], 4.28 µM; in data set [4], 1.23 µM. In data set [5], this compound came in with an inhibition at 1 µM of 92%. The figures for the “% inhibition @ 1 uM” value in data set [6] and in data set [7] were 65% and 62%, respectively. The “Toxicity to bone marrow cells (RNA synthesis and cell viability)” value in data set [8] was “not toxic”.
